According to PubChem BioAssay AID1963873 (Molecular Pharmacology Branch, DTP, NCI, 2024):

System: 276233-004-R-J1-PDC KRAS spheroids with HUVEC/MSC, viability
Test: Anticancer human tumor 276233-004-R-J1-PDC patient-derived colon adenocarcinoma cell line growth inhibition [KRAS2]
Settings: for viability, T/C: stronger effect = lower value
Method in brief: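 Combination screen of spheroid viability in tumor-cell co-cultures with endothelial (HUVEC) and mesenchymal stem cell stroma. Each agent was tested in half-log dilutions, topping at clinical Cmax or at 10 microM without a known Cmax.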

[1] = curve of first compound, second compound 0.1 µM
[2] = curve of first compound, second compound 0.316 µM
[3] = curve of first compound, second compound 1 µM
[4] = curve of first compound, second compound 3.16 µM
[5] = second compound 0.1 µM, first compound 0.00316 µM
[6] = second compound 0.1 µM, first compound 0.01 µM
[7] = second compound 0.1 µM, first compound 0.0316 µM
[8] = second compound 0.316 µM, first compound 0.00316 µM
[9] = second compound 0.316 µM, first compound 0.01 µM
[10] = second compound 0.316 µM, first compound 0.0316 µM
[11] = second compound 1 µM, first compound 0.00316 µM
[12] = second compound 1 µM, first compound 0.01 µM
[13] = second compound 1 µM, first compound 0.0316 µM
[14] = second compound 3.16 µM, first compound 0.00316 µM
[15] = second compound 3.16 µM, first compound 0.01 µM
[16] = second compound 3.16 µM, first compound 0.0316 µM
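Also: cells exposed to agents for seven days before viability read.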
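For viability, T/C in this document: 100% = DMSO vehicle control wells and lower values mean fewer viable cells.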

CC(=O)Nc1cccc(-n2c(=O)n(C3CC3)c(=O)c3c(Nc4ccc(I)cc4F)n(C)c(=O)c(C)c32)c1 + CC1OCC2(CCN(c3cnc(Sc4ccnc(N)c4Cl)c(N)n3)CC2)C1N
IC50 [1]: 4.28 nM | IC50 [2]: 2.46 nM | IC50 [3]: 0.405 nM | IC50 [4]: < 0.1 nM | IC50 (curve of first compound, second compound 10 µM): < 0.1 nM | viability, T/C (second compound 0.1 µM, first compound 0.0001 µM): 78.4% | viability, T/C (second compound 0.1 µM, first compound 0.000316 µM): 87.2% | viability, T/C (second compound 0.1 µM, first compound 0.001 µM): 65.8% | viability, T/C [5]: 55.5% | viability, T/C [6]: 35.6% | viability, T/C [7]: 13.1% | viability, T/C (second compound 0.316 µM, first compound 0.0001 µM): 67% | viability, T/C (second compound 0.316 µM, first compound 0.000316 µM): 74.1% | viability, T/C (second compound 0.316 µM, first compound 0.001 µM): 61% | viability, T/C [8]: 45.5% | viability, T/C [9]: 28% | viability, T/C [10]: 13.5% | viability, T/C (second compound 1 µM, first compound 0.0001 µM): 57.4% | viability, T/C (second compound 1 µM, first compound 0.000316 µM): 55.4% | viability, T/C (second compound 1 µM, first compound 0.001 µM): 42.6% | viability, T/C [11]: 28.4% | viability, T/C [12]: 27.4% | viability, T/C [13]: 7.28% | viability, T/C (second compound 3.16 µM, first compound 0.0001 µM): 39.7% | viability, T/C (second compound 3.16 µM, first compound 0.000316 µM): 31.9% | viability, T/C (second compound 3.16 µM, first compound 0.001 µM): 23.3% | viability, T/C [14]: 12.7% | viability, T/C [15]: 9.04% | viability, T/C [16]: 5.79% | viability, T/C (second compound 10 µM, first compound 0.0001 µM): 31.4% | viability, T/C (second compound 10 µM, first compound 0.000316 µM): 23.7% | viability, T/C (second compound 10 µM, first compound 0.001 µM): 14.7% | viability, T/C (second compound 10 µM, first compound 0.00316 µM): 10.9% | viability, T/C (second compound 10 µM, first compound 0.01 µM): 17.6% | viability, T/C (second compound 10 µM, first compound 0.0316 µM): 8.53%

CCN1CCN(Cc2ccc(Nc3ncc(F)c(-c4cc(F)c5nc(C)n(C(C)C)c5c4)n3)nc2)CC1 + C=CC(=O)N1CCN(c2nc(OCC3CCCN3C)nc3c2CCN(c2cccc4cccc(C)c24)C3)CC1CC#N
IC50 (curve of first compound, second compound 0.0316 µM): > 1000 nM | IC50 [1]: > 1000 nM | IC50 [2]: > 1000 nM | IC50 [3]: > 1000 nM | IC50 [4]: 59.6 nM | viability, T/C (second compound 0.0316 µM, first compound 0.00316 µM): 102% | viability, T/C (second compound 0.0316 µM, first compound 0.01 µM): 87% | viability, T/C (second compound 0.0316 µM, first compound 0.0316 µM): 87.1% | viability, T/C (second compound 0.0316 µM, first compound 0.1 µM): 69.2% | viability, T/C (second compound 0.0316 µM, first compound 0.316 µM): 95.5% | viability, T/C (second compound 0.0316 µM, first compound 1 µM): 112% | viability, T/C [5]: 109% | viability, T/C [6]: 86.4% | viability, T/C [7]: 86% | viability, T/C (second compound 0.1 µM, first compound 0.1 µM): 81% | viability, T/C (second compound 0.1 µM, first compound 0.316 µM): 97% | viability, T/C (second compound 0.1 µM, first compound 1 µM): 96.4% | viability, T/C [8]: 95.1% | viability, T/C [9]: 83.7% | viability, T/C [10]: 77.4% | viability, T/C (second compound 0.316 µM, first compound 0.1 µM): 86% | viability, T/C (second compound 0.316 µM, first compound 0.316 µM): 78% | viability, T/C (second compound 0.316 µM, first compound 1 µM): 90.7% | viability, T/C [11]: 81.4% | viability, T/C [12]: 83.7% | viability, T/C [13]: 96.5% | viability, T/C (second compound 1 µM, first compound 0.1 µM): 87.4% | viability, T/C (second compound 1 µM, first compound 0.316 µM): 66.2% | viability, T/C (second compound 1 µM, first compound 1 µM): 110% | viability, T/C [14]: 56.5% | viability, T/C [15]: 65.8% | viability, T/C [16]: 65.9% | viability, T/C (second compound 3.16 µM, first compound 0.1 µM): 39.6% | viability, T/C (second compound 3.16 µM, first compound 0.316 µM): 43.5% | viability, T/C (second compound 3.16 µM, first compound 1 µM): 26.5%

C=CC(=O)N1CCN(c2nc(=O)n(-c3c(C)ccnc3C(C)C)c3nc(-c4c(O)cccc4F)c(F)cc23)C(C)C1 (stereo not drawn)
IC50 (compound alone, run of 07/12/2021): > 10000 nM | IC50 (compound alone, run of 07/19/2021): > 10000 nM | IC50 (compound alone, run of 07/26/2021): > 10000 nM
